Source: US20220402862A1 (Intellia Therapeutics, Inc., priority 2019, published 2022)

Experiments:
Assay type in all cases: physicochemical
[1] = pKa measurement of unformulated amine lipid (fluorescence, method of Jayaraman et al.); details: 100 μM in 0.1 M phosphate buffer, pH 2.0-12.0
Method: The pKa of each amine lipid was determined according to the method in Jayaraman, et al. (Angewandte Chemie, 2012) with the following adaptations. […] Lipid was diluted to 100 μM in 0.1 M phosphate buffer (Boston Bioproducts) where the pH ranged from 2.0-12.0. Fluorescence intensity was measured using excitation and emission wavelengths of 321 nm and 448 nm.

[2] = RNA encapsulation efficiency of LNPs (Ribogreen fluorescence assay); details: LNP, sg:mRNA 1:1, N/P about 6, amine lipid/DSPC/cholesterol/PEG-2k-DMG 50/9/38/3; Table 2, Experiments 2-20
Method: A fluorescence-based assay (Ribogreen®, ThermoFisher Scientific) is used to determine total RNA concentration and free RNA. Encapsulation efficiency is calculated as (Total RNA-Free RNA)/Total RNA. LNP samples are diluted appropriately with 1× TE buffer containing 0.2% Triton-X 100 to determine total RNA or 1× TE buffer to determine free RNA. Standard curves are prepared by utilizing the starting RNA solution used to make the compositions and diluted in 1× TE buffer +/− 0.2% Triton-X 100. Diluted RiboGreen® dye (according to the manufacturer's instructions) is then added to each of the standards and samples and allowed to incubate for approximately 10 minutes at room temperature, in the absence of light. A SpectraMax M5 Microplate Reader (Molecular Devices) is used to read the samples with excitation, auto cutoff and emission wavelengths set to 488 nm, 515 nm, and 525 nm respectively. Total RNA and free RNA are determined from the appropriate standard curves.
Encapsulation efficiency is calculated as (Total RNA-Free RNA)/Total RNA. The same procedure may be used for determining the encapsulation efficiency of a DNA-based cargo component. In a fluorescence-based assay, for single-strand DNA Oligreen Dye may be used, and for double-strand DNA, Picogreen Dye. Alternatively, the total RNA concentration can be determined by a reverse-phase ion-pairing (RP-IP) HPLC method. Triton X-100 is used to disrupt the LNPs, releasing the RNA. The RNA is then separated from the lipid components chromatographically by RP-IP HPLC and quantified against a standard curve using UV absorbance at 260 nm.

[3] = Dynamic light scattering of LNPs: Z-average diameter, number average diameter, PDI; details: LNP, sg:mRNA 1:1, N/P about 6, 50/9/38/3; Table 2, Experiments 2-20
Method: Dynamic Light Scattering (“DLS”) is used to characterize the polydispersity index (“PDI”) and size of the LNPs of the present disclosure. DLS measures the scattering of light that results from subjecting a sample to a light source. PDI, as determined from DLS measurements, represents the distribution of particle size (around the mean particle size) in a population, with a perfectly uniform population having a PDI of zero.
LNP compositions are analyzed for average particle size, polydispersity index (PDI), total RNA content, encapsulation efficiency of RNA, and zeta potential. LNP compositions may be further characterized by lipid analysis, AF4-MALS, NTA, and/or cryo-EM. Average particle size and polydispersity are measured by dynamic light scattering (DLS) using a Malvern Zetasizer DLS instrument or Wyatt NanoStar. LNP samples were diluted with PBS buffer prior to being measured by DLS. Z-average diameter which is an intensity-based measurement of average particle size is reported along with number average diameter and PDI. A Malvern Zetasizer or Wyatt NanoStar instrument is also used to measure the zeta potential of the LNP. Samples are diluted 1:17 (50 μL into 800 μL) in 0.1× PBS, pH 7.4 prior to measurement.

Compound | pKa [1] | Encapsulation (%) [2] | Number mean (nm) [3] | PDI [3] | Z-avg (nm) [3]
CCCCCC/C=C\COC(=O)CCCCCCCCCCCC(=O)OCC(COC(=O)CCC(OCCCCCCCC)OCCCCCCCC)COC(=O)OCCCN(CC)CC (stereo not drawn) [Compound 70, (Z)-1-(3-((4,4-bis(octyloxy)butanoyl)oxy)-2-((((3-(diethylamino)propoxy)carbonyl)oxy)methyl)propyl) 13-(non-2-en-1-yl) tridecanedioate] | 6.02 | 98% | 66.78 nm | 0.017 | 83.47 nm
CCCCC/C=C\C/C=C\CCCCCCCC(=O)OCC(COCCCN(CC)CC)COC(=O)CCC(OCCCCCCCC)OCCCCCCCC (stereo not drawn) [Compound 99, 3-((4,4-bis(octyloxy)butanoyl)oxy)-2-((3-(diethylamino)propoxy)methyl)propyl (9Z,12Z)-octadeca-9,12-dienoate] | 7.1 | 99% | 74 nm | 0.003 | 89 nm
CCCCC/C=C\C/C=C\CCCCCCCC(=O)OCC(COC(=O)CC(CCCCCCCC)CCCCCCCC)COC(=O)OCCCN(CC)CC (stereo not drawn) [Compound 66, 3-(((3-(diethylamino)propoxy)carbonyl)oxy)-2-(((3-octylundecanoyl)oxy)methyl)propyl (9Z,12Z)-octadeca-9,12-dienoate] | 6.06 | 98% | 44.03 nm | 0.071 | 58.54 nm
CCCCC/C=C\C/C=C\CCCCCCCC(=O)OCC(COC(=O)CCCC(CCCCCCC)CCCCCCC)COC(=O)OCCCN(CC)CC (stereo not drawn) [Compound 67, 3-(((3-(diethylamino)propoxy)carbonyl)oxy)-2-(((5-heptyldodecanoyl)oxy)methyl)propyl (9Z,12Z)-octadeca-9,12-dienoate] | 6.19 | 99% | 56.56 nm | 0.025 | 69.85 nm
CCCCC/C=C\C/C=C\CCCCCCCC(=O)OCC(COC(=O)CCC(OCCCCCCCC)OCCCCCCCC)OC(=O)OCCCN(CC)CC (stereo not drawn) [Compound 97, 3-((4,4-bis(octyloxy)butanoyl)oxy)-2-(((3-(diethylamino)propoxy)carbonyl)oxy)propyl (9Z,12Z)-octadeca-9,12-dienoate] | 6.09 | 98% | 55.14 nm | 0.037 | 68.66 nm
CCCCCCCCOC(CCC(=O)OCC(COC(=O)CCCCCCCCCCC(=O)OCCCCC)COC(=O)OCCCN(CC)CC)OCCCCCCCC (stereo not drawn) [Compound 60, 1-(3-((4,4-bis(octyloxy)butanoyl)oxy)-2-((((3-(diethylamino)propoxy)carbonyl)oxy)methyl)propyl) 12-pentyl dodecanedioate] | 6.38 | 97% | 84.46 nm | 0.022 | 104.2 nm
CCCCC/C=C\C/C=C\CCCCCCCC(=O)OCC(COC(=O)CCCC(=O)OC(CCCCCCCC)CCCCCCCC)COC(=O)OCCCN(CC)CC (stereo not drawn) [Compound 63, 3-(((3-(diethylamino)propoxy)carbonyl)oxy)-2-((((9Z,12Z)-octadeca-9,12-dienoyl)oxy)methyl)propyl heptadecan-9-yl glutarate] | 6.09 | 98% | 64.05 nm | 0.019 | 79.37 nm
CCCCC/C=C\C/C=C\CCCCCCCC(=O)OCC(COCCN(CC)CC)COC(=O)CCC(OCCCCCCCC)OCCCCCCCC (stereo not drawn) [Compound 98, 3-((4,4-bis(octyloxy)butanoyl)oxy)-2-((2-(diethylamino)ethoxy)methyl)propyl (9Z,12Z)-octadeca-9,12-dienoate] | 6.4 | 99% | 57 nm | 0.02 | 70 nm
CCCCC/C=C\C/C=C\CCCCCCCC(=O)OCC(COC(=O)CCCCCC(=O)OC(CCCCCCCC)CCCCCCCC)COC(=O)OCCCN(CC)CC (stereo not drawn) [Compound 64, 1-(3-(((3-(diethylamino)propoxy)carbonyl)oxy)-2-((((9Z,12Z)-octadeca-9,12-dienoyl)oxy)methyl)propyl) 7-(heptadecan-9-yl) heptanedioate] | 6.08 | 98% | 69.25 nm | 0.032 | 85.16 nm
CCCCC/C=C\C/C=C\CCCCCCCC(=O)OCC(COC(=O)CCCCCC(CCCCCC)CCCCCC)COC(=O)OCCCN(CC)CC (stereo not drawn) [Compound 68, 3-(((3-(diethylamino)propoxy)carbonyl)oxy)-2-(((7-hexyltridecanoyl)oxy)methyl)propyl (9Z,12Z)-octadeca-9,12-dienoate] | 6.1 | 98% | 60.04 nm | 0.008 | 72.71 nm
CCCCC/C=C\C/C=C\CCCCCCCC(=O)OCC(COC(=O)CCCCC(OCCCCCCCC)OCCCCCCCC)COC(=O)OCCCN(CC)CC (stereo not drawn) [Compound 62, 3-((6,6-bis(octyloxy)hexanoyl)oxy)-2-((((3-(diethylamino)propoxy)carbonyl)oxy)methyl)propyl (9Z,12Z)-octadeca-9,12-dienoate] | 6.03 | 98% | 59.35 nm | 0.044 | 73.46 nm
CCCCCCCCOC(CCC(=O)OCC(COC(=O)CCCCCCCC(=O)OCCCCCC)COC(=O)OCCCN(CC)CC)OCCCCCCCC (stereo not drawn) [Compound 57, 1-(3-((4,4-bis(octyloxy)butanoyl)oxy)-2-((((3-(diethylamino)propoxy)carbonyl)oxy)methyl)propyl) 9-hexyl nonanedioate] | 6.59 | 89% | 83.41 nm | 0.011 | 102 nm
CCCCC/C=C\C/C=C\CCCCCCCC(=O)OCC(COC(=O)OCCCN(CC)CC)COC(=O)C(CCCCCC)CCCCCCCC (stereo not drawn) [Compound 65, 3-(((3-(diethylamino)propoxy)carbonyl)oxy)-2-(((2-hexyldecanoyl)oxy)methyl)propyl (9Z,12Z)-octadeca-9,12-dienoate] | 5.88 | 98% | 55.76 nm | 0.034 | 70.19 nm
CCCCCC/C=C\COC(=O)CCCCCCCCCC(=O)OCC(COC(=O)CCC(OCCCCCCCC)OCCCCCCCC)COC(=O)OCCCN(CC)CC (stereo not drawn) [Compound 69, (Z)-1-(3-((4,4-bis(octyloxy)butanoyl)oxy)-2-((((3-(diethylamino)propoxy)carbonyl)oxy)methyl)propyl) 11-(non-2-en-1-yl) undecanedioate] | 6.18 | 98% | 68.12 nm | 0.026 | 85.11 nm
CCCCCCCCOC(=O)CCCCCCCC(=O)OCC(COC(=O)CCC(OCCCCCCCC)OCCCCCCCC)COC(=O)OCCCN(CC)CC (stereo not drawn) [Compound 58, 1-(3-((4,4-bis(octyloxy)butanoyl)oxy)-2-((((3-(diethylamino)propoxy)carbonyl)oxy)methyl)propyl) 9-octyl nonanedioate] | 6.4 | 95% | 72.42 nm | 0.029 | 89.07 nm
